Laboratory results published in patent publication US10689367B2, “Triazole pyridyl compounds as agonists of the APJ receptor” (AMGEN INC., priority 2016, dated 2020).

molecular target: human APJ receptor (Homo sapiens (Human), UniProt P35414); assay: [35S]GTPγS binding assay on membranes from CHO cells stably expressing human APJ receptor; assay type: biochemical; conditions: membranes of CHO cells stably expressing human APJ receptor, read-out: Activity hAPJ SPA EC50 IP
In short: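 Agonist EC50 values come from non-linear regression of mean data from several independent runs. Membranes of CHO cells stably expressing human APJ were incubated 90 min at room temperature with [35S]GTPγS in buffer with optimized GDP, MgCl2 and NaCl, then read on a microplate imager.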

human APJ receptor, sequence (P35414 whole entry): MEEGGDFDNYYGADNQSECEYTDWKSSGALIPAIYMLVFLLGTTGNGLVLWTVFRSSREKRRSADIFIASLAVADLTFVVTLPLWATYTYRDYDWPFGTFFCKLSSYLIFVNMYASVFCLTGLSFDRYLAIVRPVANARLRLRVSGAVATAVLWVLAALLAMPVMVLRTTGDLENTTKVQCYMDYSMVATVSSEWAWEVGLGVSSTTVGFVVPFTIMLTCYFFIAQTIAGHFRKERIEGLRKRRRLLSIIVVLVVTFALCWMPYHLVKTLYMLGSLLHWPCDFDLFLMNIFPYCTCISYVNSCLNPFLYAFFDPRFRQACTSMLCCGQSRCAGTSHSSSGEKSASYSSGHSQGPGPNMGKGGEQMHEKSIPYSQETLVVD

Point of comparison: `COc1cccc(-c2nnc(NS(=O)(=O)[C@@H](C)[C@H](C)c3ncc(Cl)cn3)n2[C@@H](C)c2ccno2)n1` (single isomer, unassigned) [Example 214.0, (2S,3R)-3-(5-chloro-2-pyrimidinyl)-N-(5-(6-methoxy-2-pyridinyl)-4-((1S)-1-(1,2-oxazol-5-yl)ethyl)-4H-1,2,4-triazol-3-yl)-2-butanesulfonamide or (2S,3R)-3-(5-chloro-2-pyrimidinyl)-N-(5-(6-methoxy-2-pyridinyl)-4-((1R)-1-(1,2-oxazol-5-yl)ethyl)-4H-1,2,4-triazol-3-yl)-2-butanesulfonamide], EC50 2.9 nM. Against it:
- COc1cccc(-c2nnc(NS(=O)(=O)[C@@H](C)[C@H](OC)c3ncc(Cl)cn3)n2[C@@H](C)c2ccno2)n1 (single isomer, unassigned) [Example 213.0, (1R,2S)-1-(5-chloro-2-pyrimidinyl)-1-methoxy-N-(5-(6-methoxy-2-pyridinyl)-4-((1R)-1-(1,2-oxazol-5-yl)ethyl)-4H-1,2,4-triazol-3-yl)-2-propanesulfonamide or (1R,2S)-1-(5-chloro-2-pyrimidinyl)-1-methoxy-N-(5-(6-methoxy-2-pyridinyl)-4-((1S)-1-(1,2-oxazol-5-yl)ethyl)-4H-1,2,4-triazol-3-yl)-2-propanesulfonamide] — 4.4-fold lower, 0.66 nM
- COc1cccc(-c2nnc(NS(=O)(=O)[C@@H](C)[C@H](C)c3ncc(Cl)cn3)n2[C@@H](C)c2ccno2)n1 (single isomer, unassigned) [Example 215.0, (2S,3R)-3-(5-chloro-2-pyrimidinyl)-N-(5-(6-methoxy-2-pyridinyl)-4-((1R)-1-(1,2-oxazol-5-yl)ethyl)-4H-1,2,4-triazol-3-yl)-2-butanesulfonamide or (2S,3R)-3-(5-chloro-2-pyrimidinyl)-N-(5-(6-methoxy-2-pyridinyl)-4-((1S)-1-(1,2-oxazol-5-yl)ethyl)-4H-1,2,4-triazol-3-yl)-2-butanesulfonamide] — within 1.5-fold, 2 nM
- COc1cccc(-c2nnc(NS(=O)(=O)[C@@H](C)[C@@H](OC(C)C)c3ncc(C)cn3)n2[C@@H](C)c2ccno2)n1 (single isomer, unassigned) [Example 216.0, (1S,2S)-N-(5-(6-methoxy-2-pyridinyl)-4-((1S)-1-(1,2-oxazol-5-yl)ethyl)-4H-1,2,4-triazol-3-yl)-1-(5-methyl-2-pyrimidinyl)-1-(2-propanyloxy)-2-propanesulfonamide or (1S,2S)-N-(5-(6-methoxy-2-pyridinyl)-4-((1R)-1-(1,2-oxazol-5-yl)ethyl)-4H-1,2,4-triazol-3-yl)-1-(5-methyl-2-pyrimidinyl)-1-(2-propanyloxy)-2-propanesulfonamide] — within 1.5-fold, 2.2 nM
- COc1cccc(-c2nnc(NS(=O)(=O)[C@@H](C)[C@@H](OC(C)C)c3ncc(C)cn3)n2[C@@H](C)c2ccno2)n1 (single isomer, unassigned) [Example 217.0, (1S,2S)-N-(5-(6-methoxy-2-pyridinyl)-4-((1R)-1-(1,2-oxazol-5-yl)ethyl)-4H-1,2,4-triazol-3-yl)-1-(5-methyl-2-pyrimidinyl)-1-(2-propanyloxy)-2-propanesulfonamide or (1S,2S)-N-(5-(6-methoxy-2-pyridinyl)-4-((1S)-1-(1,2-oxazol-5-yl)ethyl)-4H-1,2,4-triazol-3-yl)-1-(5-methyl-2-pyrimidinyl)-1-(2-propanyloxy)-2-propanesulfonamide] — 1.8-fold higher, 5.3 nM
- CC[C@@H](c1c(C)noc1C)n1c(NS(=O)(=O)[C@@H](C)[C@H](OC)c2ncc(Cl)cn2)nnc1-c1cccc(OC)n1 (single isomer, unassigned) [Example 218.0, (1R,2S)-1-(5-chloro-2-pyrimidinyl)-N-(4-((1S)-1-(3,5-dimethyl-1,2-oxazol-4-yl)propyl)-5-(6-methoxy-2-pyridinyl)-4H-1,2,4-triazol-3-yl)-1-methoxy-2-propanesulfonamide or (1R,2S)-1-(5-chloro-2-pyrimidinyl)-N-(4-((1S)-1-(3,5-dimethyl-1,2-oxazol-4-yl)propyl)-5-(6-methoxy-2-pyridinyl)-4H-1,2,4-triazol-3-yl)-1-methoxy-2-propanesulfonamide] — within 1.5-fold, 3.7 nM
